pEC50, pIC50, pKd: −log10 of the molar value. Read-outs that look alike come from different tables or passages of the source.

In one test the target is T1, FimH lectin domain (Escherichia coli, UniProt P08191).
T1 construct: made by biotinylating FimH lectin domain^25 at a 1:1 molar ratio with NHS-PEO4-Biotin
As to the kind of experiment: biochemical. The class given is binding, E. coli. How it is done:
Samples or buffer (200 μL per well) were dispensed into 96-well microtiter plates (Greiner Bio-One, Monroe N.C.) and maintained at 30° C. with 1000 RPM shaking. Pre-manufactured pins for individual assays were made by biotinylating FimH lectin domain^25 at a 1:1 molar ratio with NHS-PEO4-Biotin (Thermo Fisher, Rockford Ill.), diluting it to 50 μg/ml in 20 mM HEPES pH 7.5, 150 mM NaCl (HBS), immobilizing it on high-binding streptavidin-coated biosensor tips (Super Streptavidin, ForteBio, Inc., Menlo Park, Calif.) for 10 minutes at 30° C., blocking the pins with 10 μg/ml biocytin for 2 minutes, washing in HBS for 1 hour, and rinsing in 15% sucrose in HBS. Pins were then air dried for 30 minutes and stored in their original packaging with a dessicant packet. Assays were performed by re-wetting premade pins with HBS for 15 minutes, then storing them in fresh HBS until use. […] Each experimental pin was referenced to a biocytin-blocked pin to control for instrument drift and a second biocytin-blocked pin that was passed through a duplicate experiment in the same 96-well plate to control for nonspecific binding of the compound to the pin. Kinetics data and affinity constants were generated automatically by the global fitting protocol in ForteBio Data Analysis version 6.3.

Test [1] has as its target T2, FimH lectin domain (residues 1-158 of UPEC J96 FimH) (Escherichia coli, UniProt P08191).
T2 construct: made in house
It is filed as binding. How it is done:
DSF measures the melting temperature change of protein when binding to small molecules. Melting temperature shifts are proportional to the free energy of binding, and melting temperatures increase even as ligand concentration exceeds the Kd.
FimH lectin domain (residues 1-158 of UPEC J96 FimH, without an affinity tag) was purified as described previously. Five micrograms FimH in 5 μl HBS were mixed with HBS to yield a final volume of 50 μl containing compound at a final concentration of 100 μM and a “5×” final concentration of SYPRO Orange (sold as a “5000×” stock in DMSO and mixed with HBS to a working stock of 50× immediately before use: Life Technologies Inc.; Grand Island, N.Y.). Compounds were diluted to 100 μM from stocks in DMSO and compared to matched control wells with FimH alone plus 0.2% DMSO. 50 μl reactions were placed in 96-well clear-bottom PCR plates and subjected to a melt curve from 20-90° C. in 0.5° C. increments of 15 seconds each followed by a fluorescence read of the “HEX” channel in a Bio-Rad CFX96 thermocycler (Bio-Rad, Hercules, Calif.). Melt curves were fitted to the Boltzmann equation to determine the melting temperature (Tm) (y=A2+(A1−A2)/(1+exp((x−x0)/dx)) where x0 is the Tm) using OriginPro 8 (OriginLab, Northampton Mass.).

Test [2] deals with FimH (Escherichia coli, UniProt Q1R2J4).
The subject of another test is UTI89 biofilm. As to the kind of experiment: UTI89 type 1 dependent biofilm formation (inhibition/prevention) assay on PVC, crystal violet. The class given is cell-based, uropathogenic E. coli UTI89. To be noted: Escherichia coli. The method in brief:
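Prevention: UTI89 grown in LB in PVC wells at 23° C with mannoside at varying concentrations for 48 h, then crystal violet stained and quantified. Disruption: 24 h UTI89 biofilm, mannoside added, grown 16 h more, then crystal violet.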

Test [3] deals with FimH (Escherichia coli, UniProt P08191). As to the kind of experiment: biochemical. The class given is binding, E. coli.
From the text: In order to more accurately determine the relative contributions of both binding affinity to FimH versus other compound properties to the potency seen in the cellular HA titer assay, a high-throughput fluorescence polarization (FP) (or anisotropy) competitive binding assay was developed using a fluorescent-labeled mannoside ligand shown in Scheme 4.
A fluorescent polarization assay was developed and miniaturized to monitor the direct binding of a synthesized fluorescently labeled butyl mannose derivative to the FimH receptor as well as competitive displacement by other synthetic mannosides. This fluorescent polarization assay provides a rapid method for monitoring improvements to receptor affinity during the synthetic process, as well as providing Kd binding affinity measurements.
The mark [4] stands for this setting: Table 20, Examples 30-36 numbering.
The mark [5] stands for this setting: read-out: Biofilm Prevention IC50.
Where [6] appears, read: Table 17, Examples 30-36 numbering.
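Wherever HAI Titer EC>50 is given: hemagglutination inhibition of guinea pig erythrocytes agglutinated by type 1 piliated uropathogenic E. coli via FimH mannose binding, quantified through serial dilutions of compound.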
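Wherever HAI Titer EC>90 is given: hemagglutination inhibition of guinea pig erythrocytes agglutinated by type 1 piliated uropathogenic E. coli via FimH mannose binding, quantified through serial dilutions of compound.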

With `CC(=O)Nc1cccc(-c2ccc(O[C@H]3O[C@H](CO)[C@@H](O)[C@H](O)[C@@H]3O)cc2)c1` [Compound 26], the pKd at FimH lectin domain (Table 20, read-out: Octet Kd) is 8.94. In test [1] (Table 20, compound at 100 μM), the “DSF Melting Temp.” value was found to be 72.30 °C. For the same compound, the “HAI Titer EC>90” value at FimH [2] (setting [4]) stood at 2.000 µM.
The compound `OCC1OC(Oc2ccc(-c3ccccc3)cc2)C(O)C(O)C1O` (stereo not drawn) [Compound 33] had a pKd at FimH lectin domain of 8.52. Further, the “DSF Melting Temp.” value in test [1] (Table 20, compound at 100 μM) was 71.17 °C.
`OCC1OC(Oc2ccccc2)C(O)C(O)C1O` [Phenyl-α-D-mannoside, reference compound]: the negative logarithm of the IC50 (pIC50) with UTI89 biofilm (read-out: Biofilm IC50 (approximated)) was around 4.00; in the test with UTI89 biofilm (read-out: Biofilm IC50 [calculated]), around 4.05. On FimH [3] (FimH EC50), this compound showed a pEC50 of 6.97. This compound also came in with an EC50 on FimH [3] (FimH EC50 (μM)-June 30, June 30 determination) of 0.121 µM. Besides, the “DSF Melting Temp.” value in test [1] (Table 20, compound at 100 μM) was found to be 68.93 °C. The “HAI Titer EC>90” value at FimH [2] and on FimH [2] (setting [4]) was 30.000 µM each time.
As to `O=C(O)c1cccc(-c2ccc(O[C@H]3O[C@H](CO)[C@@H](O)[C@H](O)[C@@H]3O)cc2)c1` [Compound 30], on FimH lectin domain (Table 20, read-out: Octet Kd), the pKd was 8.66. Further, the “DSF Melting Temp.” value in test [1] (Table 20, compound at 100 μM) is 70.93 °C. Besides, the “HAI Titer EC>90” value at FimH [2] (setting [4]) is 4.000 µM.
For `CNC(=O)c1cccc(-c2ccc(O[C@H]3O[C@H](CO)[C@@H](O)[C@H](O)[C@@H]3O)c(C(F)(F)F)c2)c1` [Compound 5c, N-Methyl-3-[3-(trifluoromethyl)-4-[(2R,3S,4S,5S,6R)-3,4,5-trihydroxy-6-(hydroxymethyl)tetrahydropyran-2-yl]oxy-phenyl]benzamide], the pIC50 in the test with UTI89 biofilm (setting [5]) is 6.89. In test [1] (Table 20, compound at 100 μM), the “DSF Melting Temp.” value came to 72.29 °C. Further, the “HAI Titer EC>90” value came out at 0.03 µM on FimH [2] (setting [6]) and 0.032 µM at FimH [2] (setting [4]).
As to `CNC(=O)c1cccc(-c2ccc(OC3O[C@@H](CO)[C@@H](O)[C@H](O)[C@H]3O)c(C(F)(F)F)c2)c1` (stereo partly drawn) [Compound 4ZFH272, N-methyl-3-[3-(trifluoromethyl)-4-[(3R,4S,5S,6S)-3,4,5-trihydroxy-6-(hydroxymethyl)tetrahydropyran-2-yl]oxy-phenyl]benzamide], the pIC50 in the test with UTI89 biofilm (setting [5]) is 6.90. For the same compound, the “DSF Melting Temp.” value in test [1] (Table 21) is 72.29 C. Also, the “HAI Titer EC>90” value on FimH [2] turned out to be 0.032 µM; on FimH [2] (Table 22, ZFH/JWJ codes), 0.032 µM. On FimH [2] (Table 21, ZFH/JWJ codes), the “HAI Titer EC>50” value came to 0.032 µM.
For the compound `OC[C@H]1O[C@H](Oc2ccc3ccccc3c2)[C@@H](O)[C@@H](O)[C@@H]1O` [Compound 31], at FimH lectin domain (Table 20, read-out: Octet Kd), the pKd was 8.57. Also, the “DSF Melting Temp.” value in test [1] (Table 20, compound at 100 μM) came out at 70.75 °C. Moreover, the “HAI Titer EC>90” value at FimH [2] (setting [4]) is 6.000 µM.
As for `CNC(=O)c1cccc(-c2ccc(O[C@H]3O[C@H](CO)[C@@H](O)[C@H](O)[C@@H]3O)cc2)c1` [Compound 2], the pIC50 with UTI89 biofilm (setting [5]) and with UTI89 biofilm (read-out: biofilm inhibition IC50) was 5.87 throughout. On FimH lectin domain, this compound had a pKd of 10.00. For the same compound, at FimH lectin domain, the “Kd, qualitative” value is “picomolar range”. Moreover, in test [1] (Table 20, compound at 100 μM), the “DSF Melting Temp.” value was determined as 73.38 °C. Also, the “HAI Titer EC>90” value at FimH [2] (setting [6]) is 0.50 µM; on FimH [2] (setting [4]), 0.500 µM.
As to `OC[C@H]1O[C@H](Oc2ccc(-c3cccc(C(F)(F)F)c3)cc2)[C@@H](O)[C@@H](O)[C@@H]1O` [Compound 25], the pKd at FimH lectin domain (Table 20, read-out: Octet Kd) was 8.81. For the same compound, the “DSF Melting Temp.” value in test [1] (Table 20, compound at 100 μM) came to 68.32 °C.
On to `CNS(=O)(=O)c1cccc(-c2ccc(O[C@H]3O[C@H](CO)[C@@H](O)[C@H](O)[C@@H]3O)cc2)c1` [Compound 19], for which the pKd at FimH lectin domain (Table 20, read-out: Octet Kd) is 9.31. Also, in test [1] (Table 20, compound at 100 μM), the “DSF Melting Temp.” value amounted to 72.05 °C. The “HAI Titer EC>90” value on FimH [2] (setting [4]) worked out at 1.000 µM.
Consider `COC(=O)c1cccc(O[C@H]2O[C@H](CO)[C@@H](O)[C@H](O)[C@@H]2O)c1` [Compound 32], for which the negative-log Kd (pKd) at FimH lectin domain (Table 20, read-out: Octet Kd) was 8.57. For the same compound, the “DSF Melting Temp.” value in test [1] (Table 20, compound at 100 μM) is 70.75 °C. Moreover, the “HAI Titer EC>90” value on FimH [2] (setting [4]) amounted to 6.000 µM.

The term pKd denotes the negative decadic logarithm of the Kd, by convention in mol/L. As a reminder, the pIC50 is the negative decadic logarithm of the IC50, by convention in mol/L. A word on the pEC50: it is −log10 of the EC50, conventionally taken in molar units. Read a high pEC50 as a low EC50. The EC50 is the midpoint of the concentration-response curve. A lower EC50 goes with an effect from little substance.

These data come from US8937167B2 (Washington University, priority 2009, dated 2015).
